Among the test systems are HCC-2998 colon; HL-60(TB) leukemia; HS 578T breast; IGROV1 ovarian; MDA-MB-231 breast; NCI-H23 lung; SK-OV-3 ovarian; T-47D breast.
Assay in all cases: DTP human tumour cell line panel, 48 h

Values joined by “and” are separate entries in the source; they are usually repeats but may differ in a detail not shown here. Equal entries are not always repeated.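 Exposure lasted 48 hours, with cells grown in 96-well plates and compounds tested at five concentrations. TGI is the concentration that stops growth completely.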

One may read the TGI as the concentration giving total growth inhibition.

As for `Cn1c(COC(=O)Nc2ccccc2)c(COC(=O)Nc2ccccc2)c2ccc3cc(Cl)c(Cl)cc3c21`, the TGI with HCC-2998 colon is 15.8 µM; in the test on HL-60(TB) leukemia, 10.4 µM; in the test with HS 578T breast, 29 µM; with IGROV1 ovarian, 23.5 µM; in the test with MDA-MB-231 breast, 12.7 µM; in the test on NCI-H23 lung, greater than 75 µM. The values for the TGI in the test with SK-OV-3 ovarian and in the test on T-47D breast were greater than 75 µM and 5.41 µM, respectively.
Regarding `CCC/C(Cl)=N\OC(=O)Nc1ccc(OC(F)(F)F)cc1`, the TGI with HCC-2998 colon is 38.6 µM; with HL-60(TB) leukemia, greater than 20.6 µM; in the test on HS 578T breast, greater than 70.7 µM; in the test with IGROV1 ovarian, 22 µM; with MDA-MB-231 breast, 25.8 µM; in the test on NCI-H23 lung, 53.8 µM. Moreover, the TGI with SK-OV-3 ovarian turned out to be 34.2 µM; in the test with T-47D breast, 7.65 µM.
`CCNC(=O)Nc1cccc(NC(=O)NCC)n1`: the TGI in the test on HCC-2998 colon, in the test with HL-60(TB) leukemia, in the test on HS 578T breast, in the test on IGROV1 ovarian, in the test with MDA-MB-231 breast and in the test with NCI-H23 lung was greater than 100 µM each time. The TGI in the test with SK-OV-3 ovarian and in the test on T-47D breast was greater than 100 µM each time.
`On1c(-c2ccccc2)nc2ccccc2c1=S`: the TGI in the test on HCC-2998 colon, with HL-60(TB) leukemia, with HS 578T breast, in the test on IGROV1 ovarian, in the test on MDA-MB-231 breast and in the test with NCI-H23 lung was greater than 100 µM each time. Further, the TGI in the test on SK-OV-3 ovarian and with T-47D breast was greater than 100 µM in each case.
Turning to `COc1ccc2c(c1)CCN1CCc3ccccc3CC21` (stereo not given), the TGI is 48.1 µM in the test with HCC-2998 colon; 68 µM in the test with HL-60(TB) leukemia; greater than 100 µM with HS 578T breast; greater than 100 µM with IGROV1 ovarian; greater than 100 µM with MDA-MB-231 breast; greater than 100 µM in the test with NCI-H23 lung. Moreover, the total growth inhibition concentration (TGI) in the test on SK-OV-3 ovarian and with T-47D breast was greater than 100 µM each time.
On to `[N-]=[N+]=NC1=C(c2ccccn2)C(=O)c2cccc3cccc1c23`, for which the TGI in the test with HCC-2998 colon, in the test with HL-60(TB) leukemia, with HS 578T breast, in the test on IGROV1 ovarian, in the test on MDA-MB-231 breast and with NCI-H23 lung was greater than 100 µM throughout. Further, the TGI in the test on SK-OV-3 ovarian and in the test with T-47D breast was greater than 100 µM each time.
For `C=CCOc1ccc(C2(O)c3ccccc3C3=NCCCN32)cc1` (stereo not given), the TGI in the test with HCC-2998 colon was 43.3 µM; with HL-60(TB) leukemia, greater than 100 µM; in the test with HS 578T breast it was greater than 100 µM; in the test on IGROV1 ovarian it was greater than 100 µM; with MDA-MB-231 breast it was greater than 100 µM; with NCI-H23 lung, greater than 100 µM. Moreover, the values for the TGI with SK-OV-3 ovarian and with T-47D breast were greater than 100 µM and greater than 74.6 µM, respectively.
Turning to `CC(C)(C)C(=O)CC1=Nc2ccccc2SC1(O)CC(=O)C(C)(C)C` (stereo not given), the total growth inhibition concentration (TGI) was 40.5 µM in the test with HCC-2998 colon; 80.2 µM in the test with HL-60(TB) leukemia; 71.7 µM with HS 578T breast; 61.2 µM in the test with IGROV1 ovarian; 36.2 µM in the test with MDA-MB-231 breast; 98.7 µM with NCI-H23 lung. The figures for the TGI in the test with SK-OV-3 ovarian and in the test with T-47D breast were 53.6 µM and 67.8 µM, respectively.
For the molecule `COc1ccc2cc(C(C)C(=O)N3CCOC3=O)ccc2c1` (stereo not given), the total growth inhibition concentration (TGI) with HCC-2998 colon, in the test on HL-60(TB) leukemia, with HS 578T breast, in the test on IGROV1 ovarian, with MDA-MB-231 breast and in the test with NCI-H23 lung was greater than 100 µM each time. Also, the TGI with SK-OV-3 ovarian and in the test with T-47D breast was greater than 100 µM in each case.
For `COC1C=COC2(C)Oc3c(C)c(O)c4c(O)c(c(C5SCCS5)c(O)c4c3C2=O)NC(=O)C(C)=C/C=C\C(C)C2OC(C)(C)OC(C2C)C(C)C(OC(C)=O)C1C` (stereo not given), the TGI in the test on HCC-2998 colon was 20.2 µM; with HL-60(TB) leukemia, 17.4 µM; with HS 578T breast, 63.3 µM; in the test with IGROV1 ovarian it was 30.7 µM; in the test on MDA-MB-231 breast, 45.7 µM; in the test on NCI-H23 lung it was 80.9 µM. In addition, the TGI with SK-OV-3 ovarian and in the test on T-47D breast was greater than 100 µM throughout.
Take `Nc1ccc(C(=O)N2CCC[C@H]2CO)c(N)c1`: the TGI in the test with HCC-2998 colon, with HL-60(TB) leukemia, in the test with HS 578T breast, with IGROV1 ovarian, in the test with MDA-MB-231 breast and in the test on NCI-H23 lung was greater than 100 µM throughout. The total growth inhibition concentration (TGI) in the test on SK-OV-3 ovarian and with T-47D breast was greater than 100 µM each time.
On to `CN(C)CCOC1(Cc2ccc(F)cc2)CCC(C(C)(C)C)CC1` (stereo not given), for which the TGI with HCC-2998 colon was 12.3 µM and 12.7 µM; in the test with HL-60(TB) leukemia, 13.1 µM; in the test with HS 578T breast, 32.3 µM and 28 µM; in the test on IGROV1 ovarian, 23.8 µM and 24.3 µM; with MDA-MB-231 breast, 23.8 µM and 22.9 µM; in the test with NCI-H23 lung, 27.5 µM and 24.8 µM. Further, the TGI in the test with SK-OV-3 ovarian was 27.7 µM and 28.7 µM; in the test on T-47D breast it was 17.1 µM and 13.7 µM.
For `C=CC[C@]12C=C(OC)[C@@H](O)[C@](OC)(C(c3cc(OC)c4c(c3)OCO4)[C@H]1C)[C@H]2OC(C)=O` (stereo not given in full), the TGI in the test with HCC-2998 colon, in the test on HL-60(TB) leukemia, with HS 578T breast, in the test with IGROV1 ovarian, with MDA-MB-231 breast and with NCI-H23 lung was greater than 100 µM in each case. For the same molecule, the TGI in the test with SK-OV-3 ovarian and in the test on T-47D breast was greater than 100 µM each time.
Regarding `Cn1c2ccccc2c(=NNc2cccc(C(=O)O)c2)c2ccccc21`, the TGI in the test on HCC-2998 colon was 14.9 µM; in the test with HL-60(TB) leukemia it was 33.5 µM; in the test on HS 578T breast, 64.7 µM; in the test on IGROV1 ovarian, 66.2 µM; in the test on MDA-MB-231 breast, 41 µM; in the test on NCI-H23 lung, 32 µM. For the same molecule, the results for the TGI in the test on SK-OV-3 ovarian and in the test on T-47D breast were 49.6 µM and 40.9 µM, respectively.
Consider `Nc1ccc(S2(c3ccc(N)cc3)C=C(c3ccccc3)C(c3ccccc3)=C2)cc1`, for which the TGI in the test on HCC-2998 colon, in the test on HL-60(TB) leukemia, with HS 578T breast, in the test on IGROV1 ovarian, with MDA-MB-231 breast and with NCI-H23 lung was greater than 100 µM each time. For the same molecule, the total growth inhibition concentration (TGI) was greater than 59.7 µM in the test on SK-OV-3 ovarian and greater than 100 µM in the test on T-47D breast.

The record behind these values is PubChem BioAssay (NCI).
